Laboratory results from US20180200331A1, “BST-2 AS A THERAPEUTIC TARGET AND DIAGNOSTIC MARKER FOR BREAST CANCER GROWTH AND METASTASIS” (University of Iowa Research Foundation, priority 2015, published 2018).

How the values were obtained:
Type in all cases: cell-based, mouse
[1] = system: 4T1 cells; assay: Collagen and fibronectin adhesion assay; conditions: pre-coated plates, 4 hours
Experimental: Ninety-six-well plates were coated with 50 μg/ml of collagen or fibronectin. Plates were incubated at 37° C. for 2 hours. Nonspecific sites were blocked with 40 μl of 2 mg/ml bovine serum albumin (BSA) in PBS. Wells were washed once with PBS. Cancer cells were labeled with PKH67 Green fluorescent cell linker, following the manufacturer's instructions (Sigma-Aldrich). Labelled cells were added to pre-coated wells (20,000 cells/well) and allowed to adhere for 4 hours. Non-adhered cells were washed off with PBS and plates were read at 485 nm/535 nm (excitation/emission) wavelengths using a Tecan Infinite M200 Pro plate reader (Tecan, Maennedorf, Switzerland). Values are represented as relative fluorescence unit.

[2] = system: mammary cancer cells; assay: Scratch assay; conditions: 6 h and 24 h
Experimental: Confluent monolayers of cancer cells plated in 12-well plates were scratched using a pipette tip. Fresh medium was added to the wells. Cells were allowed to migrate for 0, 6 or 24 hours before fixation (4% paraformaldehyde (PFA) for 45 minutes). Fixed cells were washed (1×PBS) and imaged with a Nikon Eclipse Ti microscope adjusted with a Nikon digital sight camera (Nikon, Tokyo, Japan). Images were processed and migrated cells counted using Image J software.

[3] = system: E0771 or 4T1 cells; assay: Cell invasion assay (Matrigel); conditions: 24 h
Experimental: The apical chamber of 24-well cell culture inserts (Merck Millipore) were coated with 3 mg/ml of Matrigel (100 μl) (Sigma-Aldrich) and allowed to solidify for 5 hours. A total of 100,000 sh413- or shControl-transduced E0771 or 4T1 cells in serum-free medium were plated on top of the Matrigel layer. Culture medium containing 10% FBS and 5 μg/ml fibronectin (adhesive substrate) (Sigma-Aldrich) was added to the basal chamber of the unit (600 μl) and cells were allowed to invade through the membranous barrier for 24 hours at 37° C. Noninvasive cells were washed off; invasive cells were fixed with 4% PFA, permeabilized with 100% methanol, labeled with Giemsa stain and imaged as described in the previous paragraph. Images were processed using Image J software. Cells from five different fields were counted and averaged.

[4] = system: E0771 cells; assay: Boyden chamber assay; conditions: 20 hours
Experimental: The apical chamber of 24-well cell culture inserts (Merck Millipore, Billerica, Mass., USA) were seeded with previously starved sh137, sh413 or shControl transduced E0771 cells (150,000) in serum-free medium. Culture medium containing 30% FBS was added to the basal chamber of the unit and cells were allowed to migrate through the membranous barrier for 20 hours at 37° C. Non-migrated cells were washed off, migrated cells were fixed with 4% PFA for 5 minutes, washed twice with 1×PBS, permeabilized with 100% methanol for 25 minutes, labeled with Giemsa stain (for 15 minutes at room temperature) and imaged using a Nikon Eclipse Ti microscope adjusted with an X-cite series 120 LED fluorescence microscope light source and a Nikon digital sight camera. Images were processed using Image J software. Cells from five different fields were counted and averaged.

[5] = system: BST-2; assay: shRNA knockdown of BST-2 in E0771 and 4T1 cells; conditions: E0771 and 4T1 cells stably transduced
From the text: E0771 and 4T1 cells were stably transduced with a construct expressing LV-CMV-firefly luciferase or an empty vector construct using lipofectamine following the manufacturer's instructions (Life Technologies, Carlsbad, Calif., USA). Stable transfectants were then transduced with lentiviral particles carrying BST-2-targeting sh137: CCGGC […] (SEQ ID NO:3); sh413: […] TTCTCAAGCTTTTTG (SEQ ID NO:4); or a non-targeting shControl: […] (SEQ ID NO:5) using a previously described protocol. Stable cells were generated by selection with the appropriate drug. The short hairpin RNA (shRNA) constructs were purchased from Sigma-Aldrich (St Louis, Mo., USA) (SHCLND-NM_198095) and lentiviral particles were generated at the Gene Transfer Vector Core at the University of Iowa.
Cell monolayers were washed with PBS and treated with Versene (Life Technologies). […] Stained cells were quantified using a FACSCalibur flow cytometer (BD Biosciences, San Jose, Calif., USA). […] Fluorescence-activated cell sorting (FACS) data were analyzed by Flowjo software (TreeStar, Ashland, Oreg., USA). […]
Western blots were performed as previously described. […] Band detection and quantification were carried out with the Odyssey Infrared Imaging System (LI-COR Biosciences, Lincoln, Nebr., USA).

[6] = system: E0771 cells; assay: MTT assay, E0771
Experimental: A total of 5,000 cells stably expressing sh137, sh413, or shControl were plated in 96-well plates. Cells were then incubated with 5 mg/ml MTT reagent for 3.5 hours followed by addition of MTT solvent (0.1% NP-40 and 4 mM HCl in isopropanol) and rocking for 15 minutes. Absorbance at 590 nm was read using a Tecan Infinite M200 Pro plate reader.

sh413: BST-2-targeting shRNA (SEQ ID NO:4), delivered by lentiviral particles (CCGGGCTTGAGAATGAAGTCACGAACTCGAGTTCGTGACTTCATTCTCAAGCTTTTTG)
adhesion to collagen [1]: reduced adhesive capability
adhesion to fibronectin [1]: reduced adhesive capability
migration into scratch wound [2]: lost the ability to migrate
invasion through Matrigel [3]: reduced the ability of the cells to invade the basement membrane
rate of cell migration (Boyden chamber) [4]: significantly reduced rate of cell migration
BST-2 expression [5]: more efficiently suppressed BST-2
cell viability (MTT) [6]: equally viable
